Reference: patent publication US20100160445A1, “Synergistic Mixtures of OPP and DGH” (priority 2002, published 2010)
Counter-ions that a name gives are not always drawn.

Tested on: mildew
Experiment: Mildew resistance testing of caulking adhesives, ASTM D3273
Format: cell-based
Method: Testing was also completed on Franklin International Caulking Adhesives. The testing that was conducted was done in accordance with test ASTM D3273 as set forth in the Annual Book of ASTM Standards, Vol 06.01 which is hereby incorporated by reference. This is a standard test method for mildew known to those skilled in the art. When performing this test OPP was not tested by itself as it is known in the art of coatings that significant amounts of OPP are required, typically in the range of 2,000 to 10,000 ppm which is supported by EPA Registration No.'s 39967-11-67869 and EPA Registration No. 464-78-67869. An example of the significant amounts of OPP needed can also be seen in the OPP results in the paint testing shown above.
• 10=No Mildew Growth, Excellent Mildew Resistance • 7-9=Trace Mildew Growth, Very Good Mildew Resistance • 6-5=Moderate Mildew Growth, Poor Mildew Resistance • 4-0=Heavy Mildew Growth, Failed

[1] = Titebond Professional Drywall Adhesive, 500 ppm
[2] = Titebond Professional Drywall Adhesive, 1000 ppm
[3] = Titebond Professional Drywall Adhesive, 1500 ppm
[4] = Titebond Professional Drywall Adhesive, 2000 ppm
[5] = Titebond Professional Tub Surround Adhesive, 500 ppm
[6] = Titebond Professional Tub Surround Adhesive, 1000 ppm
[7] = Titebond Professional Tub Surround Adhesive, 1500 ppm
[8] = Titebond Professional Tub Surround Adhesive, 2000 ppm
[9] = Titebond Solvent Free Construction Adhesive, 500 ppm
[10] = Titebond Solvent Free Construction Adhesive, 1000 ppm
[11] = Titebond Solvent Free Construction Adhesive, 1500 ppm
[12] = Titebond Solvent Free Construction Adhesive, 2000 ppm
[13] = Titebond Solvent Free Fast Grab FRP Adhesive, 500 ppm
[14] = Titebond Solvent Free Fast Grab FRP Adhesive, 1000 ppm
[15] = Titebond Solvent Free Fast Grab FRP Adhesive, 1500 ppm
[16] = Titebond Solvent Free Fast Grab FRP Adhesive, 2000 ppm
[17] = Titebond Solvent Free Subfloor Adhesive, 500 ppm
[18] = Titebond Solvent Free Subfloor Adhesive, 1000 ppm
[19] = Titebond Solvent Free Subfloor Adhesive, 1500 ppm
[20] = Titebond Solvent Free Subfloor Adhesive, 2000 ppm

CCCCCCCCCCCCNC(=N)N [DGH, Dodecylguanidine Hydrochloride]
10: Mildew Results 7 Days [1] | Mildew Results 14 Days [1] | Mildew Results 21 Days [1] | Mildew Results 28 Days [1] | Mildew Results 7 Days [2] | Mildew Results 14 Days [2] | Mildew Results 21 Days [2] | Mildew Results 28 Days [2] | Mildew Results 7 Days [3] | Mildew Results 14 Days [3] | Mildew Results 21 Days [3] | Mildew Results 28 Days [3] | Mildew Results 7 Days [4] | Mildew Results 14 Days [4] | Mildew Results 21 Days [4] | Mildew Results 28 Days [4] | Mildew Results 7 Days [5] | Mildew Results 14 Days [5] | Mildew Results 21 Days [5] | Mildew Results 28 Days [5] | Mildew Results 7 Days [6] | Mildew Results 14 Days [6] | Mildew Results 21 Days [6] | Mildew Results 28 Days [6] | Mildew Results 7 Days [7] | Mildew Results 14 Days [7] | Mildew Results 21 Days [7] | Mildew Results 28 Days [7] | Mildew Results 7 Days [8] | Mildew Results 14 Days [8] | Mildew Results 21 Days [8] | Mildew Results 28 Days [8] | Mildew Results 7 Days [9] | Mildew Results 14 Days [9] | Mildew Results 21 Days [9] | Mildew Results 28 Days [9] | Mildew Results 7 Days [10] | Mildew Results 14 Days [10] | Mildew Results 21 Days [10] | Mildew Results 28 Days [10] | Mildew Results 7 Days [11] | Mildew Results 14 Days [11] | Mildew Results 21 Days [11] | Mildew Results 28 Days [11] | Mildew Results 7 Days [12] | Mildew Results 14 Days [12] | Mildew Results 21 Days [12] | Mildew Results 28 Days [12] | Mildew Results 7 Days [13] | Mildew Results 14 Days [13] | Mildew Results 7 Days [14] | Mildew Results 14 Days [14] | Mildew Results 7 Days [15] | Mildew Results 14 Days [15] | Mildew Results 21 Days [15] | Mildew Results 7 Days [16] | Mildew Results 14 Days [16] | Mildew Results 21 Days [16] | Mildew Results 28 Days [16] | Mildew Results 7 Days [20] | Mildew Results 14 Days [20] | Mildew Results 21 Days [20] | Mildew Results 28 Days [20]
7: Mildew Results 7 Days [17] | Mildew Results 14 Days [17] | Mildew Results 7 Days [18] | Mildew Results 14 Days [18] | Mildew Results 7 Days [19] | Mildew Results 14 Days [19]
0: Mildew Results 21 Days [13] | Mildew Results 28 Days [13] | Mildew Results 21 Days [14] | Mildew Results 28 Days [14] | Mildew Results 21 Days [17] | Mildew Results 28 Days [17] | Mildew Results 21 Days [18] | Mildew Results 28 Days [18] | Mildew Results 21 Days [19] | Mildew Results 28 Days [19]
9: Mildew Results 28 Days [15]
